Patent publication US11879137B2, “Treatment of type 1 diabetes and autoimmune diseases or disorders” (THE CHILDREN'S MEDICAL CENTER CORPORATION, priority 2017, dated 2024)

Assays:
PD-L1 on CD34+ cells [1] = assay: Prostaglandin library screening and FACS of PD-L1 on human CD34+ cells; assay type: cell-based; settings: for PD-L1 expression by FACS analysis: CD34+ cells, 10 μM pulsed at 24 and 48 hours
From the text: FIGS. 17A-17J show prostaglandins enhance PD-L1 expression on human CD34^+ cells. (FIG. 17A-17B) Results of screening of a prostaglandin small molecule library tested for the ability to upregulate PD-L1 (MFI) on CD34^+ cells obtained from T1D patients. The schematic of the experimental design is shown in (A). The 3-color coding shown in (FIG. 17B) represents lowest PD-L1 MFI values (blue), median PD-L1 MFI values (pink) and highest PD-L1 MFI values (red). (FIG. 17C-17D) Representative flow cytometric analysis and quantitative bar graph of PD-L1 expression on CD34^+ cells from T1D patients pre- and post-pharmacologic modulation with PGE2 as compared to CD34^+ cells obtained from healthy controls. (FIG. 17E) PD-L1 and CXCR4 expression (mRNA) fold change was quantified for CD34^+ cells pre- and post-modulation with PGE2. (FIG. 17F) Migration assay using CD34^+ cells pre- and post-modulation with PGE2. (FIG. 17G) Confocal imaging of CD34^+ cells pre- and post-modulation with PGE2, showing DAPI (in blue) and PD-L1 (in green) staining. 63× magnification. Scale bar, 50 (FIG. 17H) IDO-1 expression (mRNA) fold change was quantified for CD34^+ cells pre- and post-modulation with PGE2. (FIG. 17I-17J) Representative flow cytometric analysis (FIG. 17I) and quantitative bar graph (FIG. 17J) of PD-L1 expression on CD34^+ cells from T1D patients pre- and post-pharmacologic modulation with 4 small molecule PGE2 agonists. All data are expressed as mean±SEM. *P<0.05, **P<0.001. Abbreviations: MFI, mean fluorescence intensity.
Pharmacological modulation of human CD34+ cells. 1×105 of isolated human CD34+ HSPCs (purity 99%) were cultured in 200 μl of StemSpan SFEM II media (SEMCELL Technologies Inc., Cambridge, MA, USA), and each compound in the Prostaglandin Screening Library II (Cayman Chemicals, Ann Arbor, MI), was added individually at day 0 and at day 1 at a concentration of 10 μM as previously reported by the inventors and others (9, 21). In another assay, isolated CD34+ cells from freshly isolated human PBMCs or from cryopreserved PBMCs, and processed as described earlier, were cultured in the presence of a cocktail of cytokines containing: 10 μg/ml heparin (SEMCELL Technologies Inc., Cambridge, MA, USA), 10 ng/ml human SCF (Miltenyi Biotec, San Diego, CA), 20 ng/ml human TPO (Miltenyi Biotec, San Diego, CA), 10 ng/ml human FGF-1 (Miltenyi Biotec, San Diego, CA), 100 ng/ml IGFBP2 (R&D Systems, Inc., Minneapolis, MN), and 500 ng/ml Angptl3 (R&D Systems, Inc., Minneapolis, MN). PGE2 (PromoKine, PromoCell Gmbh, Germany) was added by pulsing the culture at 0, 24h, 72h and 6 days with 2 μl of diluted PGE2 (10 μM). Cells were cultured for 7 days at 37° C. in 5% CO2, and CD34+ cells were then subjected to FACS analysis and were run on a FACSCelesta™ (Becton Dickinson, Franklin Lakes, NJ). Data were analyzed using FlowJo software version 8.7.3 (Treestar, Ashland, OR). The different cytokines used here and their related concentration as well as the choice of the incubation timing was used as previously reported in the literature (22).
(§1) Prostaglandin library screening. PGE2 has been described as a small molecule known to enhance the homing and engraftment of HSPCs. It was therefore sought to screen all known types of prostaglandins using the Prostaglandin Screening Library II, which contains 64 small molecules. Each small molecule contained in the library was first screened for its capacity to upregulate PD-L1 in human CD34+ cells isolated from T1D patients (FIG. 17A-17B). CD34+ cells isolated from T1D patients were cultured in StemSpan SFEMII and pulsed with each PG (prostaglandin) small molecule contained in the aforementioned library at a concentration of 10 μM at 24 and 48h. Using FACS analysis, the MFI (mean fluorescence intensity) of PD-L1 expression was calculated following treatment with each small molecule used to modulate CD34+ cells as compared to untreated/unmodulated CD34+ cells (FIG. 17B). […]

PD-L1 on CD34+ cells [2] = assay: Confocal imaging of PD-L1 on PGE2-treated CD34+ cells; assay type: cell-based, human; settings: vs untreated CD34+ cells
Procedure: Immunofluorescence and confocal microscopy. Regulatory CD34+(PGE2-modulated) cells and unmodulated CD34+ cells isolated from peripheral blood of healthy controls were fixed in 4% PFA for 1h at 4 C, washed 3 times for 20 min in PBS, and cells were counterstained with blue fluorescent DAPI (1:10000, BioLegend, San Diego, CA) and anti-human PD-L1 (BD Biosciences). Cells were photographed under a 63× objective. Images were captured on a Leica SPSX system with an upright DM6000 microscope and AIR confocal microscope (Nikon Instruments, Melville, NY). Histology was evaluated by at least two expert pathologist (9).
as §1, with “CD34+ cells isolated from T1D patients were cultured in StemSpan SFEMII and pulsed with each PG (prostaglandin) small molecule contained in the aforementioned library at a concentration of 10 μM at 24 and 48h.” left out

Row | SMILES | capacity to upregulate PD-L1 (MFI) in library screening (PD-L1 on CD34+ cells [1]; 10 μM, CD34+ cells from T1D patients) | PD-L1 expression by FACS analysis (PD-L1 on CD34+ cells [1]) | PD-L1 surface expression by confocal imaging (PD-L1 on CD34+ cells [2])
1 | CCCCC(C)(C)[C@H](O)/C=C/[C@H]1[C@H](O)CC(=O)[C@@H]1C/C=C\CCCC(=O)O [16,16-dimethyl PGE2] | strongest capacity | robust upregulation | –
2 | CCCCC[C@H](O)/C=C/[C@H]1[C@H](O)CC(=O)[C@@H]1C/C=C\CCCC(=O)O [PGE2, prostaglandin E2] | – | slight increase | upregulated
